Assay results reported in patent US20250312289A1, “METHODS AND COMPOSITIONS COMPRISING TOBACCO MILD GREEN MOSAIC VIRUS (TMGMV)” (priority 2022, published 2025).

Key:
[1] = system: β-CD-TMGMV; assay: Doxorubicin competition (displacement) assay for loading onto β-CD-TMGMV; type: binding; conditions: competitor at 1000 eq, overnight at 4° C.
Method: To assess loading of pesticides to β-CD-TMGMV, competition assays were completed between Doxorubicin (ApexBio) and the target molecules. Samples of 100 μL volume were prepared in a 96-well plate (Costar). For sample wells, 0.0825 mg of β-CD-conjugated TMGMV in KP buffer were added to the wells, in addition with doxorubicin at 10 eqβ-CD-TMIGMV (molar equivalents to β-CD-conjugated TMGMV).
Three control conditions were utilized: 1 eq TMGMV, 575 eq β-CD, and 1 eq TMGMV with 575 eq β-CD (non-conjugated). These control wells also received doxorubicin at 10 eq. The plate was incubated overnight at 4° C. on a plate rocker (Fisher). Fluorescence top readings were conducted on the plate (excitation 470 nm, emission 595 nm, 25 flashes) via UV-Vis Plate Reader (Tecan infinite 200Pro). […] Following a repeat overnight incubation at 4° C. on a plate rocker (Fisher), fluorescent reading was repeated as before.
Samples of 100 μL volume were prepared in a 96-well plate (Costar). For sample wells, 0.0825 mg of β-CD-conjugated TMGMV in KP buffer were added to the wells, in addition with doxorubicin at 10 eq (molar equivalents to β-CD-conjugated TMGMV). […] Fluorescence top readings were then conducted on the plate (excitation 470 nm, emission 595 nm, 25 flashes) via UV-Vis Plate Reader (Tecan infinite 200Pro). […] The fluorescence was then read on the plate reader as described before. […]

[2] = system: TMGMV; assay: TEM/ImageJ width of TMGMV infused with AI by partial dissociation (breathing), Example 3; type: physicochemical, Tobacco Mild Green Mosaic Virus; conditions: pH 7.5, 5 days, 500:1 equivalence ratio; TEM; control 18 nm
Method: TMGMV at a concentration of 5 mg mL^−1 in KP buffer at pH 7.5 was kept for 5 days at 4° C. Addition of the target AI to the solution was done every 24 h until reaching a 500:1 equivalence ratio and left mixing on a rotary shaker. Afterwards, the solution was centrifuged at 50,000 rpm in the tabletop ultracentrifuge (Beckman Optima MAX-XP with TLA-55 rotor) for 1 hour on a sucrose cushion (30% w/v). The viral pellet was then resuspended in 10 mM KP pH 7 overnight at 4° C. on a rotary shaker. After total resuspension, the solution was dialyzed for 48 h to remove excess (non-entrapped) AI.
Samples were diluted to the concentration of 0.05 mg mL^−1 and absorbed onto carbon-coated TEM grids (Electron Microscopy Sciences). The grids were then washed three times with pure water. Then, grids were stained by 2% (w/v) uranyl acetate for 2 min for imaging. TEM was conducted using a FEI Tecnai F30 transmission electron microscope operated at 300 kV.
Experiments were conducted to load pesticides into TMGMV by strategically altering the pH. Without being bound by theory, this entraps Als through the formation of “pockets” between coat proteins (CPs). Without being bound by theory, the rationale is that by increasing the pH of the buffer, the virus will start to dissociate and hydrophobic pockets will get created between the virion's coat proteins. AIs are then added to interact with the virus particles and then the pH is decreased to promote particles' self-assembly and entrapment of AI on the hydrophobic pockets (see schematic of FIG. 7). As discussed above, TMGMV at a concentration of 5 mg mL-1 in KP buffer at pH 7.5 was kept for at 4° C. for 5 days, and the target AI was added to the solution every 24 h until reaching a 500:1 equivalence ratio. Afterwards, the solution was centrifuged at 50,000 rpm for 1 hour on a sucrose cushion (30% w/v). The viral pellet was then resuspended in 10 mM KP pH 7 overnight at 4° C., and after total resuspension, the solution was dialyzed for 48 h to remove excess (non-entrapped) AI. Samples were then observed at TEM and analyzed using ImageJ.
To determine the change in width (breathing/infusion) of the nanoparticles, the width of sections of 100 nm in length of nanoparticles (as shown in the micrography of FIG. 8) was measured. This was done to standardize the measurements and determine the change in width. At least 5 different sections were measured per micrography, and at least 30 sections were measured in total per sample.

[3] = system: TMGMV; assay: Quantitative TEM width analysis of AI-loaded TMGMV prepared via pH and DMSO methods, Example 6; type: physicochemical, Tobacco Mild Green Mosaic Virus; conditions: negative-stain TEM, native 15.7 nm; for maximum width of AI-loaded TMGMV: pH and DMSO methods
Method: (§1) Loading of AI into TMGMV via the “pH method” was performed. TMGMV at a concentration of 1 mg mL^−1 in 10 mM KP buffer at pH 7.5 was kept for 10 days at 4° C. The following AIs were used: fluopyram and clothianidin, (BASF, Berkeley, CA, USA), rifampicin and ivermectin (BioVision; Milpitas, CA, USA). Cy5 (Lumiprobe; Cockeysville, MD, USA) and doxorubicin (ApexBio; Houston, TX, USA) were also studied as proof of concept (fluorescent molecule and cancer chemotherapy). The AI was added to TMGMV by adding an excess of 10:1 AI:coat protein (CP; each TMGMV rod is assembled from ˜2,100 identical CPs) every day until a ratio of 100:1 was reached. During this process the reaction was kept mixing on a rotary shaker. 1 mL aliquots were obtained each day for further analysis.
(§2) Loading of AI into TMGMV via the “DMSO method” was performed. TMGMV in 10 mM KP buffer (pH 7.2) was diluted to 5 mg mL-1 in 2 mL of buffer and transferred to a 25 mL beaker and magnetically stirred at 300 rpm at room temperature. A solution of DMSO and 10 mM KP was added dropwise to dilute the solution to a 20% (v/v) concentration of DMSO and 2 mg mL-1 of TMGMV. Aliquots of the AIs were added dropwise to the solution to prevent precipitation. The solutions were left to stir at room temperature for 24 hours. The samples were collected and spin filtered as described above before being stored at 4° C.
TMGMV samples were diluted to a concentration of 0.05 mg mL-1 and absorbed onto carbon-coated TEM grids (Electron Microscopy Sciences, Hatfield, PA, USA). The grids were then washed three times with pure water. Then, grids were stained by 2% (w/v) uranyl acetate for 90 seconds. TEM was conducted using a FEI Tecnai F30 transmission electron microscope operated at 300 kV. Image analysis was performed using ImageJ software (https://imagej.nih.gov/ij/download.html). To determine the change in width of the nanoparticles, the width of sections of 100 nm in length was measured for standardization purposes. Five different sections were measured per micrography and 30 of them in total per sample. Subsequently, for the complete particle, the length, the perimeter and the area were measured, to later calculate the average width from the perimeter.
TEM imaging and quantitative TEM imaging analysis of the AI-loaded TMGMV nanoparticles prepared by the pH method and the DMSO method was performed. […] To gain insights into the degree of structural changes, quantitative TEM image analysis was performed comparing native vs. the AI-laden TMGMV. Based on the negative stain, native virions were 15.7 nm in width in average (±1.9 nm), which is an underestimation to native TMGMV of 18 nm. This may be due to the uranyl acetate negative staining yielding a heavy shadow on the borders of the virion, apparently reducing its width. While there was no statistical significance between the controls that underwent both methodologies (FIG. 27), for each compound the increment (in comparison to native TMGMV) was different, as well as between methodologies (FIG. 17A).

[4] = system: TMGMV; assay: Quantification of loaded AI in TMGMV by HPLC; type: physicochemical, Tobacco Mild Green Mosaic Virus; conditions: for Detected in sample / Molecules per CP / Molecules per virion: HPLC
Method: as §1
After AI loading, the aliquots were spin-filtered using 100K molecular weight cut-off 0.5 mL filters (MilliporeSigma, Burlington, MA, USA). 200 μL of the aliquot and 250 μL of KP solution were added and then centrifuged at 16,160×g for 5 minutes at 4° C., the flow-through was discarded, and then 450 μL of KP was added and centrifuged again, this step was repeated 3 times. After the third centrifugation, the filter was inverted in a new tube and centrifuged at 1000×g for 2 minutes, to recover the supernatant and carry out the subsequent characterization.
as §2
For HPLC, AI was extracted from TMGMV. In brief, the concentration of TMGMV samples was adjusted to 1.2 mg mL-1 in KP. The solution was diluted 4-fold into a 1:1 acetonitrile/:methanol mixture and vortexed for 30 seconds. The solution was centrifuged at 10,000×g for 10 minutes at 4° C. and the organic phase (bottom fraction) was collected and transferred to an HPLC 2 mL glass screw top vial (SureSTART, Thermo Scientific, Waltham, MA, USA).
After a 10-fold dilution in acetonitrile, the extracted samples were injected at 500 μL and run on 5 μm C18 column (20×100 mm) using a Shimadzu LC-40 HPLC system (Columbia, MD, USA). The method was run at 0.5 mL min-1 in a gradient of acetonitrile and 0.02% (v/v) phosphoric acid for 15 minutes per sample. A photodiode array was used to collect absorbance values at 280 nm (fluopyram), 269 nm (clothianidin), 225 nm (ivermectin), and 330 nm (rifampicin). The absorbance values were fitted to a standard curve to identify sample concentration with N=3.

[5] = cited from earlier work
[6] = system: TMGMV; assay: Size exclusion chromatography with absorbance (Beer-Lambert) loading determination; type: physicochemical, Tobacco Mild Green Mosaic Virus; conditions: SEC absorbance 480 nm / 647 nm, Beer-Lambert law
Method: TMGMV samples (500 μL at 0.5 mg/mL) were analyzed using a Superose6 Increase 100 GL column and an AKTA Pure25 chromatography system (GE Healthcare, Chicago, Il, USA) using a flow rate 0.5 mL/min in 10 mM KP (pH 7.4). […]
Size exclusion chromatography (SEC) was performed to further verify structural integrity of the AI-laden TMGMV particles during post-processing and purification.

[7] = DMSO method (20% v/v, 24 hours)

Compound: CN/C(=N\[N+](=O)[O-])NCc1cnc(Cl)s1 [Clothianidin, clothianidin]
- doxorubicin initially bound to β-CD-TMGMV displaced [1]: 17.60%
- average width of infused TMGMV [2]: 26 nm
- increase in width vs native TMGMV control [2]: 38%
- width increase compared to negatively-stained native TMGMV [3]: 65%
- less loading using DMSO method vs pH method ([4]; 24 hour DMSO vs 10-day pH): about 10%
- Detected in sample [4, 7]: 2.06 µg/mL
- Molecules per CP [4, 7]: 0.47
- Molecules per virion [4, 7]: 995
- Detected in sample ([4]; pH method (pH 7.5, 10 days)): 2.29 µg/mL
- Molecules per CP ([4]; pH method (pH 7.5, 10 days)): 0.52
- Molecules per virion ([4]; pH method (pH 7.5, 10 days)): 1107.55
- logP [5]: 1.3

Compound: COc1cccc2c1C(=O)c1c(O)c3c(c(O)c1C2=O)C[C@@](O)(C(=O)CO)C[C@@H]3O[C@H]1C[C@H](N)[C@H](O)[C@H](C)O1 [Doxorubicin, doxorubicin]
- average width of infused TMGMV [2]: 35 nm
- increase in width vs native TMGMV control [2]: 89%
- loading, molecules per TMGMV [6]: ~615
- logP [5]: 0.02

Compound: O=C(NCCc1ncc(C(F)(F)F)cc1Cl)c1ccccc1C(F)(F)F [Fluopyram, fluopyram]
- doxorubicin initially bound to β-CD-TMGMV displaced [1]: 18.34%
- average width of infused TMGMV [2]: 22 nm
- increase in width vs native TMGMV control [2]: 21%
- width increase compared to negatively-stained native TMGMV [3]: 14%
- maximum width of AI-loaded TMGMV [3]: 18 nm
- increase in loading using DMSO method vs pH method ([4]; 24 hour DMSO vs 10-day pH): 11.7 fold
- Detected in sample [4, 7]: 0.61 µg/mL
- Molecules per CP [4, 7]: 0.087
- Molecules per virion [4, 7]: 185.59
- Detected in sample ([4]; pH method (pH 7.5, 10 days)): 0.05 µg/mL
- Molecules per CP ([4]; pH method (pH 7.5, 10 days)): 0.007
- logP [5]: 3.33

Compound: CO[C@H]1/C=C/O[C@@]2(C)Oc3c(C)c(O)c4c(O)c(c(/C=N/N5CCN(C)CC5)c(O)c4c3C2=O)NC(=O)/C(C)=C\C=C\[C@H](C)[C@H](O)[C@@H](C)[C@@H](O)[C@@H](C)[C@H](OC(C)=O)[C@@H]1C [Rifampicin, rifampicin]
- logP [5]: 2.4

Compound: cyanine5 [Cyanine 5]
- loading, molecules per TMGMV [6]: ~80
- logP [5]: 3.84

Compound: ivermectin
- width increase compared to negatively-stained native TMGMV [3]: 46%
- maximum width of AI-loaded TMGMV [3]: 23 nm
- increase in loading using DMSO method vs pH method ([4]; 24 hour DMSO vs 10-day pH): 21.3 fold
- Detected in sample [4, 7]: 0.44 µg/mL
- Molecules per CP [4, 7]: 0.029
- Molecules per virion [4, 7]: 61.63
- Detected in sample ([4]; pH method (pH 7.5, 10 days)): 0.02 µg/mL
- Molecules per CP ([4]; pH method (pH 7.5, 10 days)): 0.001
- Molecules per virion ([4]; pH method (pH 7.5, 10 days)): 2.89
- logP [5]: 4.4
